From patent publication US8506930B2, “Compounds having affinity for amyloid” (Nihon Medi-Physics Co., Ltd., priority 2006, dated 2013)

Key:
[1] = target: T1, intracerebral amyloid (aggregated Aβ1-40 injected into amygdaloid nucleus) (Homo sapiens, UniProt P05067); experiment: Ex vivo autoradiogram of 123I-IMPY using rats of amyloid injected model, Comparative Example II-6; format: in vivo, male Wistar rat; details: brain slice 60 minutes after tail vein injection
T1 construct: Aβ1-40 (Peptide Institute, INC.) was dissolved in phosphate buffer (pH 7.4); purchased Peptide Institute, INC
Procedure: (§1) (1) Aβ1-40 (manufactured by Peptide Institute, INC.) was dissolved in phosphate buffer (pH 7.4) and shaken at 37° C. for 72 hours, to obtain 1 mg/mL of a suspension of aggregated Aβ (hereinafter referred to as amyloid suspension in this Example).
(§2) (2) 2.5 μL (corresponding to 25 μg) of the amyloid suspension was injected into an amygdaloid nucleus on one side of a male Wistar rat (7-week old). As a control, 2.5 μL of a phosphate buffered physiological saline solution (pH 7.4) was injected into an amygdaloid nucleus on the other side of the rat. The rats were examined 1 day after the injection of the amyloid suspension and the phosphate buffered physiological saline solution (pH 7.4).
(§3) This solution was injected under thiopental anesthesia into the rat through the tail vein (dosage: 0.5 mL, dosed radioactivity: 14.5 MBq equivalent).
(§4) (4) Brain was removed 60 minutes after the injection to prepare a brain slice of 10 μm in thickness with a microtome (type: CM3050S, manufactured by LEICA). The brain slice was exposed to an imaging plate for 20 hours, and then image analysis was carried out by use of a Bio-imaging Analyzer (type: BAS-2500; manufactured by FUJIFILM Corporation).

[2] = test system: intracerebral amyloid (aggregated Aβ1-40 injected into amygdaloid nucleus); experiment: as above; format: in vivo, male Wistar rat; details: autoradiogram, 60 minutes after tail vein injection
Procedure: as §1, §2, §3, §4

[3] = Partition coefficient based on the octanol extraction method, Examples II-20 to II-21; format: physicochemical; details: octanol / 10 mmol/L phosphate buffer (pH 7.4); Table 2-6
Procedure: To 2 mL of octanol, 10 μL each of the prepared sample solution was added, and 2 mL of 10 mmol/L phosphate buffer (pH 7.4) was further added, followed by stirring for 30 seconds. After the mixture was centrifuged with a low-speed centrifuge (2000 rpm×60 min.), the octanol layer and the water layer were sampled each in an amount of 1 mL, and subjected to measurement of radioactivity count with an autowell gamma system (Type: ARC-301B, manufactured by Aloka). Using the obtained radioactivity count, log Poctanol was calculated in accordance with the equation (2-4).

[4] = Transferability into brain and clearance, Examples I-20 to I-21; format: in vivo, male Wistar rats; details: rats, intravenous injection, Table 1-7
Source text: Three animals were used for Experiment I-20 and Comparative Experiment I-9, and two animals were used for Experiment I-21 at the respective time points.

[5] = Transferability into brain and clearance, Examples II-10 to II-11; format: in vivo, male Wistar rats; details: rats, intravenous injection, Table 2-5
Procedure: 0.05 mL each of the prepared sample solutions was injected under thiopental anesthesia into the tail vein of the rats. The rats were sacrificed by bleeding from abdominal artery, and brains were removed and subjected to measurement of mass of brains and further subjected to measurement of radioactivity (hereinafter referred to as A in this Example) with a single channel analyzer (detector type SP-20 manufactured by OHYO KOKEN KOGYO Co., Ltd.) 2, 5, 30, and 60 minutes after the injection. Further, the radioactivity level of the rest of the whole body was measured in the same manner as above (hereinafter referred to as B in this Example). Using these measurement results, radioactive distribution per unit weight of brain (% ID/g) at the respective time points were calculated in accordance with the following formula (2-3).
(§5) Three animals were used for the experiment at the respective time points.

[6] = Partition coefficient based on the octanol extraction method, Examples I-13 to I-14; format: physicochemical; details: octanol / 10 mmol/L phosphate buffer (pH 7.4); Table 1-4
Procedure: After the mixture was centrifuged with a low-speed centrifuge (2000 rpm×60 min.), the octanol layer and the water layer were sampled each in an amount of 1 mL, and subjected to measurement of radioactivity count with an autowell gamma system (manufactured by Aloka, Type: ARC-301B). Using the obtained radioactivity count, log Poctanol was calculated in accordance with the equation (1-2).

[7] = Transferability into brain and clearance (2), Example I-30; format: in vivo, male Wistar rats; details: rats, intravenous injection, Table 1-10
Procedure: 0.05 mL each of these solutions was injected under thiopental anesthesia into the tail vein of respective Wistar rats (7-week old). The rats were sacrificed by bleeding from abdominal artery, and brains were removed and subjected to measurement of mass of brains and further subjected to measurement of radioactivity (hereinafter referred to as A in this Example) with a single channel analyzer (detector type: SP-20 manufactured by OHYO KOKEN KOGYO Co., Ltd.) 2, 5, 30 and 60 minutes after the injection. Also, radioactivity (hereinafter referred to as B in this Example) of the rest of the whole body was measured in the same manner as above. Using these measurement results, radioactive distribution per unit weight of brain (% ID/g) at the respective time points were calculated in accordance with the following formula (1-7).
Three animals were used for experiment at the respective time points.

[8] = Partition coefficient based on the octanol extraction method, Example I-29; format: physicochemical; details: octanol / 10 mmol/L phosphate buffer (pH 7.4); Table I-9
Procedure: To 2 mL of octanol, 10 μL each of the prepared sample solutions was added, and 2 mL of a 10 mmol/L phosphate buffer (pH 7.4) was further added, followed by stirring for 30 seconds.

[9] = Transferability into brain and clearance, Examples II-22 to II-23; format: in vivo, male Wistar rats; details: rats, intravenous injection, Table 2-7
Procedure: 0.05 mL each of the prepared sample solutions was injected under thiopental anesthesia into the tail vein of the respective Wistar rat (7-week old). The rats were sacrificed by bleeding from abdominal artery, and brains were removed and subjected to measurement of mass of brains and further subjected to measurement of radioactivity (hereinafter referred to as A in this Example) with a single channel analyzer (detector type SP-20 manufactured by OHYO KOKEN KOGYO Co., Ltd.) 2, 5, 30, and 60 minutes after the injection. Further, the radioactivity level of the rest of the whole body was measured in the same manner as above (hereinafter referred to as B in this Example). Using these measurement results, radioactive distribution per unit weight of brain (% ID/g) at the respective time points were calculated in accordance with the following formula (2-5).
as §5

[10] = Partition coefficient based on the octanol extraction method, Examples II-8 to II-9; format: physicochemical; details: octanol / 10 mmol/L phosphate buffer (pH 7.4); Table 2-4
Procedure: To 2 mL of octanol, 10 μL each of the prepared sample solutions was added, 2 mL of 10 mmol/L phosphate buffer (pH 7.4) was added, followed by stirring for 30 seconds. After the mixture was centrifuged with a low-speed centrifuge (2000 rpm×60 min.), the octanol layer and the water layer were sampled each in an amount of 1 mL, and subjected to measurement of radioactivity count with an autowell gamma system (Type: ARC-301B, manufactured by Aloka). Using the obtained radioactivity count, log Poctanol was calculated in accordance with the equation (2-2).

T1 sequence (P05067 672-711): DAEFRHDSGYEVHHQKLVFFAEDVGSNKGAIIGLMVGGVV

CN(C)c1ccc(-c2cn3cc([123I])ccc3n2)cc1 [[^123I]-IMPY, reference compound]
accumulation of radioactivity in amygdaloid nucleus on the side to which the amyloid suspension was injected [1]: marked accumulation of radioactivity
accumulation of radioactivity where amyloid was not injected (white matter) [2]: non-specific accumulation was observed in white matter
logPoctanol value [3]: 2.1
Radioactive distribution in brain per unit weight, After 2 min. ([4]; 2 min.): 1.02 % ID/g
Radioactive distribution in brain per unit weight, After 5 min. ([4]; 5 min.): 0.99 % ID/g
Radioactive distribution in brain per unit weight, After 30 min. ([4]; 30 min.): 0.20 % ID/g
Radioactive distribution in brain per unit weight, After 60 min. ([4]; 60 min.): 0.08 % ID/g
Radioactive distribution in brain per unit weight, After 2 min. ([5]; 2 min.): 1.19 % ID/g
Radioactive distribution in brain per unit weight, After 5 min. ([5]; 5 min.): 0.97 % ID/g
Radioactive distribution in brain per unit weight, After 30 min. ([5]; 30 min.): 0.23 % ID/g
Radioactive distribution in brain per unit weight, After 60 min. ([5]; 60 min.): 0.09 % ID/g
logPoctanol value [6]: 2.1
Radioactive distribution in brain per unit weight, After 2 min. ([7]; 2 min.): 1.19 % ID/g
Radioactive distribution in brain per unit weight, After 5 min. ([7]; 5 min.): 0.97 % ID/g
Radioactive distribution in brain per unit weight, After 30 min. ([7]; 30 min.): 0.23 % ID/g
Radioactive distribution in brain per unit weight, After 60 min. ([7]; 60 min.): 0.09 % ID/g
logPoctanol value [8]: 2.1
Radioactive distribution in brain per unit weight, After 2 min. ([9]; 2 min.): 1.19 % ID/g
Radioactive distribution in brain per unit weight, After 5 min. ([9]; 5 min.): 0.97 % ID/g
Radioactive distribution in brain per unit weight, After 30 min. ([9]; 30 min.): 0.23 % ID/g
Radioactive distribution in brain per unit weight, After 60 min. ([9]; 60 min.): 0.09 % ID/g
logPoctanol value [10]: 1.9
